Reference: US11872225B2, “Pyruvate kinase modulators and use thereof” (Agios Pharmaceuticals, Inc., priority 2017, dated 2024)

Target: wild type PKM2 (Homo sapiens, UniProt P14618)
Assay: PKM2 Assay (LDH/NADH-coupled, absorbance at 340 nm)
Format: biochemical
Conditions: wild type PKM2 activation; 60 min preincubation at 25° C.; ADP 0.4 mM, PEP 0.11 mM; read-out: PKM2 WT AC50
Method: A compound described herein may be tested for its ability to activate PKM2. For simplicity, the activation activity of these compounds is represented as an AC50 in Table 2. In Tables 2, a compound described herein may have an AC50 of wild type PKM2.
PKM2 enzyme stock solution was diluted to prepare a 1.11× Reaction Mix (without ADP). 1 μL of test compound was first added to the wells followed by 40 μL of 1.11× Reaction Mix (without ADP) and incubated at room temperature (25° C.) for 60 min. The reaction was initiated with 10 μL ADP (0.4 mM final concentration), bringing the final Reaction Mix to 1×, and the reaction progress was measured as changes in absorbance at 340 nm wavelength at room temperature.
Test compound preparation: Test compounds were prepared at 50× final concentration in DMSO. 1 to 3 dilutions were made for 11 points (for example 50 μL of 5000 μM compound was added to 100 μL 100% DMSO to yield a 1667 μM, 50 μL of this added to 100 μL DMSO to yield 556 μM, and so forth). The compounds were added to the assay as a 1 to 50 dilution (1 μL in 50 μL) to yield a top concentration of 100 μM, decreasing 3-fold for 11 points.
Reaction Mix: PKM2 (5 ng/well, 0.1 μg/ml), ADP (0.4 mM), PEP (0.11 mM), NADH (180 μM), LDH (0.005 U/μL, Sigma #L3888), 1 mM DTT, 0.03% BSA in 1× Reaction Buffer
Reaction Buffer: 100 mM KCl, 50 mM Tris pH 7.5, 5 mM MgCl2.

Sequence of wild type PKM2 (P14618 whole entry): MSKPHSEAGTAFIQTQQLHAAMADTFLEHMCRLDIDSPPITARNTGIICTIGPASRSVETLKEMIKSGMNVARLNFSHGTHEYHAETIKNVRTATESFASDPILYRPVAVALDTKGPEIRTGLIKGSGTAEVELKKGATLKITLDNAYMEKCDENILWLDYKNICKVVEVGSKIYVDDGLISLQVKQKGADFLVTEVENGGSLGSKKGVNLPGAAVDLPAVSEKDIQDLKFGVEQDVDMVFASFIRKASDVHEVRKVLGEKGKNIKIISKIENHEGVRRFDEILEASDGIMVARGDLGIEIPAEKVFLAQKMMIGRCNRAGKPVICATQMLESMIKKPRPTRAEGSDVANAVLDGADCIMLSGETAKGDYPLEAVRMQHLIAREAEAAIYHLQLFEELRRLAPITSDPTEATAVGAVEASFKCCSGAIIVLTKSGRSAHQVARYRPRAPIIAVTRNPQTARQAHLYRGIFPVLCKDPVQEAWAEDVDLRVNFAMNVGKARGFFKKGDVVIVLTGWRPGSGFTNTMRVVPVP

| SMILES | AC50 [nM] |
| --- | --- |
| COc1cccc(Cn2ncc3c4sc(C(=O)c5ccccc5)nc4n(C)c3c2=O)c1 [Compound 1] | < 300 |
| COc1cccc(Cn2ncc3c4sc(S(=O)(=O)c5ccccc5)nc4n(C)c3c2=O)c1 [Compound 10] | < 300 |
| COc1cccc(Cn2ncc3c4sc(CC5CCCCC5)nc4n(C)c3c2=O)c1 [Compound 19] | > 800 |
| COc1cccc(Cn2ncc3c4sc(C(=O)c5cccc(O)c5)nc4n(C)c3c2=O)c1 [Compound 21] | < 300 |
| Cn1c2nc([S+](C)[O-])sc2c2cnn(Cc3cccc4c3CCNC4)c(=O)c21 (stereo not drawn) [Compound 30] | < 300 |
| Cn1c2nc(Cc3cc[nH]n3)sc2c2cnn(Cc3cccc4[nH]ncc34)c(=O)c21 [Compound 31] | < 300 |
| Cn1c2nc(Cc3ccc(C#N)cc3)sc2c2cnn(Cc3cccc4[nH]ncc34)c(=O)c21 [Compound 33] | > 800 |
| C=Cc1nc2c(s1)c1cnn(Cc3cccc4[nH]ncc34)c(=O)c1n2C [Compound 39] | < 300 |
| CSc1nc2c(s1)c1cnn(Cc3cn4cccnc4n3)c(=O)c1n2C [Compound 40] | > 800 |
| CSc1nc2c(s1)c1cnn(Cc3cccc(S(N)(=O)=O)c3)c(=O)c1n2C [Compound 41] | 301 to 800 |
| Cn1c2nc(Cc3ccc(C(N)=O)cc3)sc2c2cnn(Cc3cccc4[nH]ncc34)c(=O)c21 [Compound 42] | > 800 |
| COC(=O)C(C(=O)OC)c1nc2c(s1)c1cnn(Cc3cccc4[nH]ncc34)c(=O)c1n2C [Compound 43] | < 300 |
| CSc1nc2c(s1)c1cnn(Cc3ccc(S(N)(=O)=O)cc3)c(=O)c1n2C [Compound 44] | > 800 |
| Cn1c2nc(SCc3ccccc3)sc2c2cnn(Cc3cccc4[nH]ncc34)c(=O)c21 [Compound 45] | 301 to 800 |
| CNCc1nc2c(s1)c1cnn(Cc3cccc4[nH]ncc34)c(=O)c1n2C [Compound 46] | < 300 |
| CSc1nc2c(s1)c1cnn(Cc3csc(-n4c(C)ccc4C)n3)c(=O)c1n2C [Compound 47] | > 800 |
| Cn1c2nc(C(O)c3ccccn3)sc2c2cnn(Cc3cccc4[nH]ncc34)c(=O)c21 (stereo not drawn) [Compound 48] | > 800 |
| Cn1c2nc(CN)sc2c2cnn(Cc3cccc4[nH]ncc34)c(=O)c21 [Compound 49] | 301 to 800 |
| Cn1c2nc(C(c3cccc4[nH]ncc34)S(=O)(=O)c3ccccc3)sc2c2cnn(Cc3cccc4[nH]ncc34)c(=O)c21 (stereo not drawn) [Compound 50] | > 800 |
| COC(=O)C(c1ccccc1)c1nc2c(s1)c1cnn(Cc3cccc4[nH]ncc34)c(=O)c1n2C (stereo not drawn) [Compound 51] | < 300 |
| Cn1c2nc(Nc3ccccc3)sc2c2cnn(Cc3cccc4[nH]ncc34)c(=O)c21 [Compound 52] | > 800 |

| SMILES | AC50 [nM] |
| --- | --- |
| Cn1c2nc(C3(c4ccccc4)CC3)sc2c2cnn(Cc3cccc4[nH]ncc34)c(=O)c21 [Compound 53] | > 800 |
| Cn1c2nc(Cc3ccc(Cl)nc3)sc2c2cnn(Cc3cccc4[nH]ncc34)c(=O)c21 [Compound 55] | > 800 |
| Cn1c2nc(Cc3cncnc3)sc2c2cnn(Cc3cccc4[nH]ncc34)c(=O)c21 [Compound 56] | > 800 |
| Cn1c2nc(Cc3ccncc3)sc2c2cnn(Cc3cccc4[nH]ncc34)c(=O)c21 [Compound 57] | > 800 |
| COC(=O)C(c1cc[nH]n1)c1nc2c(s1)c1cnn(Cc3cccc4[nH]ncc34)c(=O)c1n2C (stereo not drawn) [Compound 58] | > 800 |
| Cn1c2nc(Cc3n[nH]cc3C(F)(F)F)sc2c2cnn(Cc3cccc4[nH]ncc34)c(=O)c21 [Compound 59] | > 800 |
| Cn1c2nc(Cc3ccc(=O)[nH]c3)sc2c2cnn(Cc3cccc4[nH]ncc34)c(=O)c21 [Compound 60] | > 800 |
| Cn1c2nc(Cc3cc[nH]n3)sc2c2cnn(Cc3ccc(C(N)=O)cc3)c(=O)c21 [Compound 61] | > 800 |
| CC(=O)NC(c1cc[nH]n1)c1nc2c(s1)c1cnn(Cc3cccc4[nH]ncc34)c(=O)c1n2C (stereo not drawn) [Compound 62] | > 800 |
| Cn1c2nc(Cc3cc[nH]n3)sc2c2cnn(Cc3ccn[nH]3)c(=O)c21 [Compound 63] | < 300 |
| Cn1c2nc(NC(=O)Cc3cc[nH]n3)sc2c2cnn(Cc3cccc4[nH]ncc34)c(=O)c21 [Compound 64] | > 800 |
| Cn1c2nc(Cc3cnoc3)sc2c2cnn(Cc3cccc4[nH]ncc34)c(=O)c21 [Compound 65] | < 300 |
| Cn1cc(Cc2nc3c(s2)c2cnn(Cc4cccc5[nH]ncc45)c(=O)c2n3C)cn1 [Compound 66] | < 300 |
| Cn1c2nc(-n3cnc(CS(=O)(=O)c4ccccc4)c3)sc2c2cnn(Cc3cccc4[nH]ncc34)c(=O)c21 [Compound 67] | > 800 |
| Cn1c2nc(Cc3cc[nH]n3)sc2c2cnn(Cc3csc(C(N)=O)n3)c(=O)c21 [Compound 69] | < 300 |
| Cn1c2nc(Cc3cc[nH]n3)sc2c2cnn(Cc3cncs3)c(=O)c21 [Compound 70] | < 300 |
| CC(=O)c1cccc(CC(c2cc[nH]n2)c2nc3c(s2)c2cnn(Cc4cccc(C(C)=O)c4)c(=O)c2n3C)c1 (stereo not drawn) [Compound 71] | > 800 |
| Cn1c2nc(Cc3cc[nH]n3)sc2c2cnn(Cc3ccccc3)c(=O)c21 [Compound 72] | < 300 |
| Cc1cccc(Cn2ncc3c4sc(Cc5cc[nH]n5)nc4n(C)c3c2=O)n1 [Compound 73] | < 300 |
| Cn1c2nc(Cc3cc[nH]n3)sc2c2cnn(Cc3cccc(N)n3)c(=O)c21 [Compound 74] | < 300 |
| Cn1c2nc(Cc3cc[nH]n3)sc2c2cnn(Cc3csc(N)n3)c(=O)c21 [Compound 75] | < 300 |

Continued, values first:

| AC50 [nM] | SMILES |
| --- | --- |
| < 300 | Cc1nc2c(s1)c1cnn(Cc3cccc(F)c3)c(=O)c1n2C [Compound 2] |
| 301 to 800 | COc1ccccc1Cn1ncc2c3sc(C)nc3n(C)c2c1=O [Compound 3] |
| 301 to 800 | CCOC(=O)c1cccc(Cn2ncc3c4sc(C)nc4n(C)c3c2=O)c1 [Compound 4] |
| > 800 | Cc1nc2c(s1)c1cnn(Cc3cccc(C(=O)O)c3)c(=O)c1n2C [Compound 5] |
| 301 to 800 | Cc1nc2c(s1)c1cnn(Cc3ccc4nn[nH]c4c3)c(=O)c1n2C [Compound 6] |
| > 800 | Cc1nc2c(s1)c1cnn(CO)c(=O)c1n2C [Compound 7] |
| < 300 | Cc1nc2c(s1)c1cnn(Cc3cccc4[nH]ncc34)c(=O)c1n2C [Compound 8] |
| 301 to 800 | Cc1nc2c(s1)c1cnn(Cc3cccc(F)n3)c(=O)c1n2C [Compound 9] |
| < 300 | C=Cc1nc2c(s1)c1cnn(Cc3cccc(OC)c3)c(=O)c1n2C [Compound 11] |
| > 800 | Cc1nc2c(s1)c1cnn(Cc3c[nH]cn3)c(=O)c1n2C [Compound 12] |
| 301 to 800 | COC(=O)c1nc2c(s1)c1cnn(Cc3cccc(OC)c3)c(=O)c1n2C [Compound 13] |
| > 800 | Cc1nc2c(s1)c1cnn(Cc3ccc(CO)cc3)c(=O)c1n2C [Compound 14] |
| > 800 | Cc1nc2c(s1)c1cnn(CCCO)c(=O)c1n2C [Compound 15] |
| 301 to 800 | Cc1nc2c(s1)c1cnn(Cc3cccc([N+](=O)[O-])c3)c(=O)c1n2C [Compound 16] |
| > 800 | Cc1nc2c(s1)c1cnn(Cc3ccc([N+](=O)[O-])cc3)c(=O)c1n2C [Compound 17] |
| > 800 | Cc1nc2c(s1)c1cnn(Cc3ccc(N)cc3)c(=O)c1n2C [Compound 18] |
| > 800 | Cc1nc2c(s1)c1cnn(CCOCCO)c(=O)c1n2C [Compound 20] |

| AC50 [nM] | SMILES |
| --- | --- |
| > 800 | Cc1nc2c(s1)c1cnn(Cc3ccc4[nH]c(=O)[nH]c4c3)c(=O)c1n2C [Compound 22] |
| 301 to 800 | Cc1nc2c(s1)c1cnn(Cc3cccc4cn[nH]c34)c(=O)c1n2C [Compound 23] |
| > 800 | CCOC(=O)Cn1ncc2c3sc(C)nc3n(C)c2c1=O [Compound 24] |
| > 800 | Cc1nc2c(s1)c1cnn(CCO)c(=O)c1n2C [Compound 25] |
| 301 to 800 | Cc1nc2c(s1)c1cnn(Cc3cn[nH]c3)c(=O)c1n2C [Compound 26] |
| 301 to 800 | Cn1c2nc([S+](C)[O-])sc2c2cnn(Cc3ccc(C#N)cc3)c(=O)c21 (stereo not drawn) [Compound 27] |
| < 300 | Cc1nc2c(s1)c1cnn(Cc3cccc4c3cnn4C)c(=O)c1n2C [Compound 28] |
| 301 to 800 | Cn1c2nc([S+](C)[O-])sc2c2cnn(Cc3ccnc(N)c3)c(=O)c21 (stereo not drawn) [Compound 29] |
| < 300 | CC(=O)c1cccc(Cn2ncc3c4sc([S+](C)[O-])nc4n(C)c3c2=O)c1 (stereo not drawn) [Compound 32] |
| > 800 | Cn1c2nc([S+](C)[O-])sc2c2cnn(Cc3cnc(N)nc3)c(=O)c21 (stereo not drawn) [Compound 34] |
| > 800 | CSc1nc2c(s1)c1cnn(Cc3ccnc(=O)[nH]3)c(=O)c1n2C [Compound 35] |
| 301 to 800 | Cn1c2nc([S+](C)[O-])sc2c2cnn(Cc3ccnc(N)n3)c(=O)c21 (stereo not drawn) [Compound 36] |
| > 800 | Cn1c2nc([S+](C)[O-])sc2c2cnn(Cc3ccc(C(N)=O)cc3)c(=O)c21 (stereo not drawn) [Compound 37] |
| < 300 | Cn1c2nc([S+](C)[O-])sc2c2cnn(Cc3cnc(N)s3)c(=O)c21 (stereo not drawn) [Compound 38] |
| < 300 | Cn1c2nc(C#N)sc2c2cnn(Cc3csc(N)n3)c(=O)c21 [Compound 54] |
| < 300 | Cn1c2nc(Cc3cc[nH]n3)sc2c2cnn(Cc3csc(CO)n3)c(=O)c21 [Compound 68] |
